In patent US20230321012A1 (priority 2021, published 2023):
Values joined by “and” are separate entries in the source; they are usually repeats but may differ in a detail not shown here. Identical values can stand only once. Like-named read-outs stand apart in the source and are kept apart here.

What was measured:
[1] = Clinical safety and tolerability, dose-limiting toxicities (NCT03536728); type: in vivo
Text: Clinical Trial Outline. […] All solid tumor types are eligible for the trial. […] DFMO was delivered orally twice daily in gel capsules.
These DLTs involved vomiting, diarrhea and nausea, and inferred a potential dual drug targeting of the gastrointestinal (GI) tract in these patients. One patient experienced severe dehydration, requiring hospitalization. A similar observation was made in dogs in Aminex's 28-day toxicological testing. […] The clinical observations and the data obtained in dog studies, together, support the hypothesis that combined oral drug dosing levels and DFMO targeting of the GI tract are causing the intolerance.
In cohorts before Part 2, Cohort 4, 14 adults were treated at 1,200 mg or higher of AMXT 1501 daily, either once daily or BID, with no DLTs. A total of 18 patients were treated at 800 mg AMXT 1501 or higher daily with no DLTs. These patients included a couple of adult patients where Cmax values above 1,000 ng/mL AMXT 1501 plasma levels were observed, again with no DLTs observed.

four tumor cell lines [2] = details: average, growth of four cell lines in culture; read-out: in vitro EC50 against cancer cells; cited from earlier work
in vivo = details: male, Th-MYCN, mouse
Method: Male Th-MYCN mice, approximately 5-6 weeks of age, with spontaneous neuroblastoma tumor development commenced treatment according to Table 6.1 when tumors were approximately 5 mm in size. […] Time point: three treatments, cull 24 hours after last treatment in the morning.
Sample Preparation. Animals were euthanized on the morning of the 4th day, after three days of treatment and shaved, and then the carcasses were frozen. Tissues stored at −80° C. were placed inside the cryostat. The temperature of the cryostat was maintained around −20° C. and −40° C. 20-am tissue sections in the sagittal plane going through the left eye were obtained for each carcass. Tissue sections were mounted directly on indium tin oxide (ITO) slides.
Tissue sections on ITO slides were placed in a desiccator for 15 minutes before matrix deposition. An image of the slides was then acquired with a scanner to synchronize positions of the tissue sections with the target of the laser.
Dilution series of the test items were prepared in water from the stock solutions. […] A spot of pure solvent was added as a negative control. Slides were then placed in a desiccator for 15 minutes before MALDI matrix deposition. The control liver tissue consisted of a liver homogenate spiked with an olanzapine standard at 40 g/g of tissue. Sections of the liver homogenate were prepared and added on each ITO slide in order to monitor the signal of the FTICR through the different acquisitions and thus validate the comparison between slides.
For AMXT 1501, 2,5-dihydroxybenzoic acid (DHB) at 40 mg/ml in 1:1 MeOH/H2O with 1% trifluoroacetic acid (TFA) and 25 nM of ^13C4-AMXT 1501 was sprayed on the samples with an automatic sprayer (TM-Sprayer, HTX-Imaging).
The mass spectrometry imaging (MSI) acquisitions were performed using the parameters in Table 6.2 with a data reduction parameter set at 95%. MSI data were acquired and analyzed with FlexImaging 4.1 (Bruker Daltonics), Data Analysis 4.0 (Bruker Daltonics) and Multimaging™ 1.2.2 (ImaBioTech).
Intensity scales representing the molecular signal were adjusted for each image to discriminate the noise from the molecular signal but also to give the best visualization of the signal across the sections. […] Convolution step was performed on the original images using a normalized uniform kernel, which averages the values around a position. The kernel size was manually optimized for the analysis, minimizing the background noise. Based on the MSI data set on the tissue sections and the dilution series, the quantitation of the test items was performed with the IS approach. A correlation between the calibration curve and the signal obtained on the tissues was performed in order to determine the concentration of the test items per histological structure in g/g of tissue and μM.

four tumor cell lines [3] = assay: In vitro tumor cell growth inhibition by AMXT 1501; type: cell-based; details: equivalent of 51 nM
Text: See Burns, M. R., et al., J Med Chem 52, 1983-1993 (2009), the entire content of which is incorporated herein by reference.

[4] = mouse, in vivo

For `CCCCCCCCCCCCCCCC(=O)NCCCC[C@@H](N)C(=O)NCCCNCCCCNCCCN` [AMXT 1501, D-lys(palmitoyl)-spermine], the dose-limiting toxicities ([1]; 14 adults at 1,200 mg or higher of AMXT 1501 daily, QD or BID, cohorts before Part 2 Cohort 4) is given as “no DLTs”, the dose-limiting toxicities ([1]; 18 patients at 800 mg AMXT 1501 or higher daily) is given as “no DLTs” and the EC50 (four tumor cell lines [2]) is given as 51 nM. The concentration at 96 h (in vivo; brown fat, sc, 2.5 mg/kg) was 8330 ng/g, the concentration at 96 h (in vivo; cardiac blood, sc, 2.5 mg/kg) was 8370 ng/g and the concentration at 96 h (in vivo; eye, sc, 2.5 mg/kg) was 9300 ng/g. For the same compound, the concentration at 96 h (in vivo; intestine contents, sc, 2.5 mg/kg) was 8470 ng/g, the concentration at 96 h (in vivo; intestine wall, sc, 2.5 mg/kg) was 9000 ng/g and the concentration at 96 h (in vivo; intestine wall, subcutaneous, 2.5 mg/kg) was 11400 ng/g. It also gave a concentration at 96 h (in vivo; kidney, sc, 2.5 mg/kg) of 5640 ng/g, a concentration at 96 h (in vivo; kidney, subcutaneous, 2.5 mg/kg) of 12100 ng/g and a concentration at 96 h (in vivo; liver, sc, 2.5 mg/kg) of 8870 ng/g. The concentration at 96 h (in vivo; liver, subcutaneous, 2.5 mg/kg) was 9530 ng/g, the concentration at 96 h (in vivo; lung, sc, 2.5 mg/kg) was 14500 ng/g and the concentration at 96 h (in vivo; lung, subcutaneous, 2.5 mg/kg) was 17000 ng/g. The concentration at 96 h (in vivo; myocardium, sc, 2.5 mg/kg) was 8440 ng/g, the concentration at 96 h (in vivo; myocardium, subcutaneous, 2.5 mg/kg) was 9590 ng/g and the concentration at 24 h (in vivo; organs (range across organs), subcutaneous, 2.5 mg/kg) was 3360 ng/g to 17000 ng/g and 5.9 µM to 29.9 µM. The concentration at 24 h (in vivo; organs, range from intestine contents to lung, subcutaneous, 2.5 mg/kg) was 3360 to 17000 ng/g, the concentration at 96 h (in vivo; pancreas, sc, 2.5 mg/kg) was 8430 ng/g and the concentration at 96 h (in vivo; pancreas, subcutaneous, 2.5 mg/kg) was 8540 ng/g. The concentration at 96 h (in vivo; spleen, subcutaneous, 2.5 mg/kg) was 12900 ng/g, the concentration at 96 h (in vivo; stomach contents, sc, 2.5 mg/kg) was 8800 ng/g and the concentration at 96 h (in vivo; stomach contents, subcutaneous, 2.5 mg/kg) was 8480 ng/g. For the same compound, the concentration at 96 h (in vivo; stomach wall, sc, 2.5 mg/kg) was 8550 ng/g, the concentration at 96 h (in vivo; stomach wall, subcutaneous, 2.5 mg/kg) was 8810 ng/g and the concentration at 96 h (in vivo; testis, sc, 2.5 mg/kg) was 9160 ng/g. The concentration at 96 h (in vivo; testis, subcutaneous, 2.5 mg/kg) was 9820 ng/g, the concentration at 96 h (in vivo; thymus, sc, 2.5 mg/kg) was 10700 ng/g and the concentration at 96 h (in vivo; thymus, subcutaneous, 2.5 mg/kg) was 13900 ng/g. The concentration at 96 h (in vivo; tumor, sc, 2.5 mg/kg) was 10000 ng/g, the concentration at 24 h (in vivo; tumor, subcutaneous) was 12.7 µM and the concentration at 24 h (in vivo; tumor, subcutaneous, 2.5 mg/kg) was 7230 ng/mL and 10000 ng/g and 17.6 µM. The “EC50 expressed per tissue weight” value (four tumor cell lines [3]) was 0.029 µg/g, the EC50 (four tumor cell lines [3]; read-out: EC50 as equivalent plasma concentration) was 0.028 µg/mL and the “effect of DFMO on AMXT 1501 tumor retention” value [4] was “no effect”. For the same compound, the “tumor AUC, AMXT 1501” value [4] was 152,000 hr*ng/mL and the “tumor AUC0-∞, AMXT 1501” value ([4]; sc, 2.5 mg/kg) was 138,000 hr*ng/mL.
